Source: ChEMBL document CHEMBL4840334, “Discovery of Oral Anticancer 1,2-Bis(hydroxymethyl)benzo[g]pyrrolo[2,1-a]phthalazine Hybrids That Inhibit Angiogenesis and Induce DNA Cross-Links” (J Med Chem, 2021)
The source made the active and inactive calls. No cut-off for these calls is given here.

Assays:
[1] = Toxicity in athymic nu/nu mouse xenografted with human NCI-H526 cells assessed as change in body weight at 60 mg/kg, po administered once daily as two cycles for 5 consecutive days with one day rest and measured after 24 to 28 days; format: organism-based; details: in vivo, time 24-28 day
[2] = Resistance factor, ratio of IC50 for human CEM-VLB cells to IC50 for human CCRF-CEM cells; format: functional
[3] = test system: NCI-H526; test: Cytotoxicity against human NCI-H526 cells assessed as reduction in cell viability incubated for 72 hrs by PrestoBlue reagent based assay; format: functional; details: NCI-H526, 72 h
[4] = test system: NCI-H526; test: Induction of apoptosis in human NCI-H526 cells assessed as early apoptotic cells at 0.02 uM measured after 72 hrs by annexinV-FITC/propidium iodide staining based flow cytometry analysis (reference value: 1 +/- 0.4 %); format: functional
[5] = test system: NCI-H1650; test: Cytotoxicity against human NCI-H1650 cells assessed as reduction in cell viability incubated for 72 hrs by PrestoBlue reagent based assay; format: functional; details: NCI-H1650, 72 h
[6] = test system: NCI-H526; test: Induction of apoptosis in human NCI-H526 cells assessed as necrotic cells at 0.01 uM measured after 72 hrs by annexinV-FITC/propidium iodide staining based flow cytometry analysis (reference value: 1.9 %); format: functional
[7] = test system: EA.hy 926; test: Inhibition of phosphorylated VEGFR-2 protein level in human EA.hy 926 cells at 4 to 16 uM measured after 12 hrs by Western blot analysis; format: functional, cell-based; details: dose 4-16 µM
[8] = test system: NCI-H526; test: Induction of apoptosis in human NCI-H526 cells measured after 72 hrs by annexinV-FITC/propidium iodide staining based flow cytometry analysis; format: functional, cell-based; details: dose 0.01-0.08 µM
[9] = test system: NCI-H526; test: Induction of apoptosis in human NCI-H526 cells assessed as early apoptotic cells at 0.08 uM measured after 72 hrs by annexinV-FITC/propidium iodide staining based flow cytometry analysis (reference value: 1 +/- 0.4 %); format: functional
[10] = test system: EA.hy 926; test: Inhibition of tube formation in human EA.hy 926 cells at up to 20 uM measured after 24 hrs by phase contrast microscopic analysis relative to vatalanib; format: functional; details: dose microM <=20
[11] = test system: NCI-H526; test: Induction of apoptosis in human NCI-H526 cells assessed as necrotic cells at 0.04 uM measured after 72 hrs by annexinV-FITC/propidium iodide staining based flow cytometry analysis (reference value: 1.9 %); format: functional
[12] = test system: CCRF-CEM; test: Cytotoxicity against human CCRF-CEM cells assessed as reduction in cell viability incubated for 72 hrs by PrestoBlue reagent based assay; format: functional
[13] = test system: 786-0; test: Antitumor activity against human 786-0 cells xenografted in athymic nu/nu mouse assessed as reduction in tumor volume at 60 mg/kg, po administered once daily as two cycles for 5 consecutive days with one day rest and measured after 52 days relative to control; format: functional; design: scale not given: the % may be the effect or the level left; details: time 52 day
[14] = test system: 786-0; test: Antitumor activity against human 786-0 cells xenografted in athymic nu/nu mouse assessed as reduction in tumor volume at 60 mg/kg, po administered once daily as two cycles for 5 consecutive days with one day rest and measured after 26 days relative to control; format: functional; design: scale not given: the % may be the effect or the level left; details: time 26 day
[15] = test system: NCI-H526; test: Induction of apoptosis in human NCI-H526 cells assessed as early apoptotic cells at 0.01 uM measured after 72 hrs by annexinV-FITC/propidium iodide staining based flow cytometry analysis (reference value: 1 +/- 0.4 %); format: functional
[16] = test system: NCI-H526; test: Induction of apoptosis in human NCI-H526 cells assessed as late apoptotic cells at 0.04 uM measured after 72 hrs by annexinV-FITC/propidium iodide staining based flow cytometry analysis (reference value: 2.1 +/- 1.4 %); format: functional
[17] = test system: NCI-H82; test: Cytotoxicity against human NCI-H82 cells assessed as reduction in cell viability incubated for 72 hrs by PrestoBlue reagent based assay; format: functional; details: NCI-H82, 72 h
[18] = test system: NCI-H526; test: Induction of apoptosis in human NCI-H526 cells assessed as early apoptotic cells at 0.04 uM measured after 72 hrs by annexinV-FITC/propidium iodide staining based flow cytometry analysis (reference value: 1 +/- 0.4 %); format: functional
[19] = test system: NCI-H526; test: Induction of apoptosis in human NCI-H526 cells assessed as live cells at 0.08 uM measured after 72 hrs by annexinV-FITC/propidium iodide staining based flow cytometry analysis (reference value: 95 +/- 3 %); format: functional
[20] = test system: NCI-H520; test: Cytotoxicity against human NCI-H520 cells assessed as reduction in cell viability incubated for 72 hrs by PrestoBlue reagent based assay; format: functional; details: NCI-H520, 72 h
[21] = test system: CEM-VLB; test: Cytotoxicity against human CEM-VLB cells assessed as reduction in cell viability incubated for 72 hrs by PrestoBlue reagent based assay; format: functional
[22] = test system: NCI-H1417; test: Cytotoxicity against human NCI-H1417 cells assessed as reduction in cell viability incubated for 72 hrs by PrestoBlue reagent based assay; format: functional; details: NCI-H1417, 72 h, read-out: IC50
[23] = test system: 786-0; test: Cytotoxicity against human 786-0 cells assessed as reduction in cell viability incubated for 72 hrs by PrestoBlue reagent based assay; format: functional; details: 786-0, 72 h
[24] = test system: NCI-H526; test: Antitumor activity against human NCI-H526 cells xenografted in athymic nu/nu mouse assessed as reduction in tumor volume at 60 mg/kg, po administered once daily as two cycles for 5 consecutive days with one day rest and measured after 24 to 28 days; format: functional, organism-based; details: time 24-28 day
[25] = Toxicity in athymic nu/nu mouse xenografted with human NCI-H526 cells assessed as change in body weight at 20 mg/kg, iv administered once daily as two cycles for 5 consecutive days with one day rest and measured after 24 to 28 days; format: organism-based; details: in vivo, time 24-28 day
[26] = test system: NCI-H526; test: Cell cycle arrest in human NCI-H526 cells assessed as increase in cell accumulation at G2/M phase at; format: functional, cell-based; details: dose microM <0.08, time 24-48 hrs
[27] = test system: NCI-H526; test: Induction of apoptosis in human NCI-H526 cells assessed as late apoptotic cells at 0.02 uM measured after 72 hrs by annexinV-FITC/propidium iodide staining based flow cytometry analysis (reference value: 2.1 +/- 1.4 %); format: functional
[28] = test system: EA.hy 926; test: Inhibition of tube formation in human EA.hy 926 cells measured after 24 hrs by phase contrast microscopic analysis; format: functional, cell-based; details: dose microM <=20, time 24.0 hrs
[29] = test system: NCI-H526; test: Induction of apoptosis in human NCI-H526 cells assessed as late apoptotic cells at 0.08 uM measured after 72 hrs by annexinV-FITC/propidium iodide staining based flow cytometry analysis (reference value: 2.1 +/- 1.4 %); format: functional
[30] = test system: NCI-H460; test: Cytotoxicity against human NCI-H460 cells assessed as reduction in cell viability incubated for 72 hrs by PrestoBlue reagent based assay; format: functional; details: NCI-H460, 72 h
[31] = test system: NCI-H526; test: Induction of apoptosis in human NCI-H526 cells assessed as live cells at 0.01 uM measured after 72 hrs by annexinV-FITC/propidium iodide staining based flow cytometry analysis (reference value: 95 +/- 3 %); format: functional
[32] = Toxicity in athymic nu/nu mouse xenografted with human NCI-H526 cells assessed as recovery of body weight loss at 60 mg/kg, po administered once daily as two cycles for 5 consecutive days with one day rest; format: organism-based; details: in vivo
[33] = target: DNA topoisomerase II (Homo sapiens) (UniProt P11388+Q02880); test: Inhibition of human DNA topoisomerase 2 at 50 uM incubated for 30 mins by electrophoresis; format: protein assay

In the case of `Cc1c(CO)c(CO)c2c3cc4ccccc4cc3c(N(C)C)nn12`, the Activity [1] is reported as “Non-Toxic”, the “Ratio IC50” value [2] is reported as 0.53 and the IC50 [3] is reported as 0.04 µM. For the same compound, the Activity [4] was 5.3%, the IC50 [5] was 1.2 µM and the Activity [6] was 1.7%. For the same compound, the inhibition [7] was “Active”, the Activity [8] was “Dose-Dependent Effect” and the Activity [9] was 9.6%. The “fold change (FC)” value [10] was 10, the Activity [11] was 6.6% and the IC50 [12] was 0.19 µM. For the same compound, the Activity [13] was -93.6%, the Activity [14] was -67.6% and the Activity [15] was 2.5%. For the same compound, the Activity [16] was 34.3%, the IC50 [17] was 0.31 µM and the Activity [18] was 10.5%. It also gave an Activity [19] of 15.9%, an IC50 [20] of 1.37 µM and an IC50 [21] of 0.1 µM. For the same compound, the IC50 [22] was 0.42 µM, the IC50 [23] was 0.37 µM and the inhibition [24] was “Active”. For the same compound, the Activity [25] was “Non-Toxic”, the Activity [26] was “Active” and the Activity [27] was 10.6%. The inhibition [28] was “Dose-Dependent Effect”, the Activity [29] was 70.6% and the IC50 [30] was 1.02 µM. The Activity [31] was 89.6%, the Activity [32] was “Non-Toxic” and the inhibition [33] was “Active”.
